This is an account of results in patent US20240166652A1, “MODULATORS OF THE INTEGRATED STRESS PATHWAY” (Calico Life Sciences LLC, priority 2017, published 2024).

The experiment relates to ATF4 luciferase reporter in HEK293T cells. The experiment in a line: ATF4-Luc assay (ATF4 luciferase reporter, tunicamycin-treated HEK293T cells). It counts as cell-based, human. The following applies: Homo sapiens, HEK-293T; HEK293T cells carrying the ATF4 luciferase reporter, 1 μg/mL tunicamycin, 7 hours. For orientation: Reporter assays use an easily measured gene product as a stand-in for the process of interest.

Usually EC50 stands for the concentration needed to bring the measured effect to its halfway point. Regarding `O=C(COc1ccc(Cl)c(F)c1)NC12CC(NC(=O)[C@@H](O)c3ccc(Cl)cc3)(C1)C2` [Compound 307, (2S)—N-{3-[2-(4-chloro-3-fluorophenoxy)acetamido]bicyclo[1.1.1]pentan-1-yl}-2-(4-chlorophenyl)-2-hydroxyacetamide], the EC50 is above 2000 nM.

Regarding `Cc1cc(OC(C)(C)C(=O)NC23CCC(NC(=O)COc4ccc(Cl)c(F)c4)(CC2)C[C@@H]3O)ccc1Cl` [Compound 439, N-{(2S)-4-[2-(4-chloro-3-fluorophenoxy)acetamido]-2-hydroxybicyclo[2.2.2]octan-1-yl}-2-(4-chloro-3-methylphenoxy)-2-methylpropanamide], the concentration for a half-maximal effect (EC50) was below 10 nM.

`O=C(COc1ccc(Cl)c(F)c1)NC12CCC(NC(=O)COc3ccnn(CC(F)(F)F)c3=O)(CC1)C(O)C2` (stereo not drawn) [Compound 333, 2-(4-chloro-3-fluorophenoxy)-N-[3-hydroxy-4-(2-{[3-oxo-2-(2,2,2-trifluoroethyl)-2,3-dihydropyridazin-4-yl]oxy}acetamido)bicyclo[2.2.2]octan-1-yl]acetamide]: the EC50 lay within 250 to 500 nM.

As to `Cc1cc(OCC(=O)NC23CC(NC(=O)COc4ccc(Cl)c(F)c4)(C2)C3)ncc1Cl` [Compound 216, 2-(4-chloro-3-fluorophenoxy)-N-(3-{2-[(5-chloro-4-methylpyridin-2-yl)oxy]acetamido}bicyclo[1.1.1]pentan-1-yl)acetamide], the EC50 is 50 to 250 nM.

Turning to `CC(C)(C)OC(=O)CN(CC(=O)NC12CC(NC(=O)COc3ccc(Cl)c(F)c3)(C1)C2)c1ccc(Cl)cc1` [Compound 685, tert-butyl {[2-({3-[2-(4-chloro-3-fluorophenoxy)acetamido]bicyclo[1.1.1]pentan-1-yl}amino)-2-oxoethyl](4-chlorophenyl)amino}acetate], the EC50 was above 2000 nM.

In the case of `O=C(COc1ccc(Cl)c(F)c1)NC12CCC(NC(=O)COc3ccc(C(F)(F)F)nc3)(CC1)[C@H](O)C2` (single isomer, unassigned) [Compound 303], the EC50 was 10 to 50 nM.

In the case of `O=C(CCOCc1cccc(Cl)c1)NC12CC(NC(=O)COc3ccc(Cl)c(F)c3)(C1)C2` [Compound 163, N-{3-[2-(4-chloro-3-fluorophenoxy)acetamido]bicyclo[1.1.1]pentan-1-yl}-3-[(3-chlorophenyl)methoxy]propanamide], the EC50 lay within 250 to 500 nM.

With `O=C(COc1ccc(F)c(F)c1)NC12CCC(NC(=O)COc3ccc(Cl)c(Cl)c3)(CC1)C(=O)N2` [Compound 680, 2-(3,4-dichlorophenoxy)-N-{1-[2-(3,4-difluorophenoxy)acetamido]-3-oxo-2-azabicyclo[2.2.2]octan-4-yl}acetamide], the half-maximal effective concentration (EC50) was below 10 nM.

Consider `O=C(COc1ccc(Cl)c(F)c1)NC12CCC(NC(=O)COc3ccc(Cl)c(F)c3)(CC1)[C@@H](C(=O)O)C2` [Compound 558, (2S)-1,4-bis[2-(4-chloro-3-fluorophenoxy)acetamido]bicyclo[2.2.2]octane-2-carboxylic Acid], for which the concentration for a half-maximal effect (EC50) lay in the range of 500 to 2000 nM.

With `O=C(COn1nnc2cccnc21)NC12CCC(NC(=O)COc3ccc(Cl)c(F)c3)(CC1)C(=O)N2` [Compound 691, 2-(4-chloro-3-fluorophenoxy)-N-(3-oxo-1-{2-[(3H-[1,2,3]-triazolo[4,5-b]pyridin-3-yl)oxy]acetamido}-2-azabicyclo[2.2.2]octan-4-yl)acetamide], the EC50 was above 2000 nM.

Regarding `O=C(CNC(=O)c1ccc(OC(F)(F)F)cn1)NC12CC(NC(=O)COc3ccc(Cl)c(F)c3)(C1)C2` [Compound 386, N-[2-({3-[2-(4-chloro-3-fluorophenoxy)acetamido]bicyclo[1.1.1]pentan-1-yl}amino)-2-oxoethyl]-5-(trifluoromethoxy)pyridine-2-carboxamide], the half-maximal effective concentration (EC50) is above 2000 nM.

On to `Cc1cc(OCC(=O)NC23CC(NC(=O)COc4ccc(Cl)c(F)c4)(C2)C3)cnc1C` [Compound 234, 2-(4-chloro-3-fluorophenoxy)-N-(3-{2-[(5,6-dimethylpyridin-3-yl)oxy]acetamido}bicyclo[1.1.1]pentan-1-yl)acetamide], for which the concentration giving a half-maximal response (EC50) lay within 50 to 250 nM.
